Tested on: plasma GH
Experiment: suppression of plasma GH after rGHRH challenge in rat
Format: in vivo
Conditions: rat studies (GH and IGF-1 suppression)
Experimental: The in vivo pharmacological efficacy of paltusotine has been examined in rat and dog. In the rat, acute efficacy was evaluated by examining the suppression of plasma GH in response to a challenge with rat growth hormone releasing hormone (rGHRH). […] The effects of chronic, oral, 14-day administration of paltusotine were evaluated by measuring the sustained suppression of IGF-1 in the rat.

## C[C@@H](O)[C@@H]1NC(=O)[C@H](CCCCN)NC(=O)[C@@H](Cc2c[nH]c3ccccc23)NC(=O)[C@H](Cc2ccccc2)NC(=O)[C@@H](NC(=O)[C@H](N)Cc2ccccc2)CSSC[C@@H](C(=O)N[C@H](CO)[C@@H](C)O)NC1=O [Octreotide, reference compound]
  maximal effects as positive control: maximal effects similar to orally administered paltusotine
